Measured values as given in BindingDB's records for doi:10.1007/bf00178951 (Sandoz Pharma, 1994).

Molecular target: G_PROTEIN_RECEP_F1_2 domain-containing protein (Sus scrofa, UniProt I3LCE8)
Sequence (I3LCE8 whole entry): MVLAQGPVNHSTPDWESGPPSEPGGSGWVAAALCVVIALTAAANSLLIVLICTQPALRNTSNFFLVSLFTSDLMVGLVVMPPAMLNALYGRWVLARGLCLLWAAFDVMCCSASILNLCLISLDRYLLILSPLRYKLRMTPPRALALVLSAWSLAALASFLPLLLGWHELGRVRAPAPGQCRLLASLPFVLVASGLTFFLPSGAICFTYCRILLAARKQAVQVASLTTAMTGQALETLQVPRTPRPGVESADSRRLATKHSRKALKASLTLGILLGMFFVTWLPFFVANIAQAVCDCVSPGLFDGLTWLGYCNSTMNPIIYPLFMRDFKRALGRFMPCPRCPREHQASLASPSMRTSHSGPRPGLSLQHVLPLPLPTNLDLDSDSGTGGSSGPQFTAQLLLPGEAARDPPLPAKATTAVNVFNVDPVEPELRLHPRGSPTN

Ki: > 10 µM
SMILES: O=C(c1ccc(F)cc1)C1CCN(CCn2c(=O)[nH]c3ccccc3c2=O)CC1 [3-(2-{4-[(4-fluorophenyl)carbonyl]piperidin-1-yl}ethyl)-1,2,3,4-tetrahydroquinazoline-2,4-dione]
